Assay results reported in patent publication US8815857B2 (Boehringer Ingelheim International GmbH, priority 2011, dated 2014).
In brackets after ≈: the same amount, converted by molar mass.

What was measured:
[1] = target: T1, human soluble guanylate cyclase alpha 1 and beta 1 subunits (sGC) stably expressed in Chinese hamster ovary cells (Homo sapiens, UniProt Q02108+Q02153); test: sGC cellular activator assay: cGMP in CHO cells expressing human sGC, preincubated with ODQ; format: cell-based; conditions: 40 microM ODQ preincubation, 30 min at room temperature, presence or absence of 50% human serum not given, read-out: EC50 nM, Activity of Compounds in Cellular Assay
T1 construct: expressed in transfected cells; host or cells: Chinese hamster ovary cells, stably transfected
T1 sequence (Q02108 1-690 partner): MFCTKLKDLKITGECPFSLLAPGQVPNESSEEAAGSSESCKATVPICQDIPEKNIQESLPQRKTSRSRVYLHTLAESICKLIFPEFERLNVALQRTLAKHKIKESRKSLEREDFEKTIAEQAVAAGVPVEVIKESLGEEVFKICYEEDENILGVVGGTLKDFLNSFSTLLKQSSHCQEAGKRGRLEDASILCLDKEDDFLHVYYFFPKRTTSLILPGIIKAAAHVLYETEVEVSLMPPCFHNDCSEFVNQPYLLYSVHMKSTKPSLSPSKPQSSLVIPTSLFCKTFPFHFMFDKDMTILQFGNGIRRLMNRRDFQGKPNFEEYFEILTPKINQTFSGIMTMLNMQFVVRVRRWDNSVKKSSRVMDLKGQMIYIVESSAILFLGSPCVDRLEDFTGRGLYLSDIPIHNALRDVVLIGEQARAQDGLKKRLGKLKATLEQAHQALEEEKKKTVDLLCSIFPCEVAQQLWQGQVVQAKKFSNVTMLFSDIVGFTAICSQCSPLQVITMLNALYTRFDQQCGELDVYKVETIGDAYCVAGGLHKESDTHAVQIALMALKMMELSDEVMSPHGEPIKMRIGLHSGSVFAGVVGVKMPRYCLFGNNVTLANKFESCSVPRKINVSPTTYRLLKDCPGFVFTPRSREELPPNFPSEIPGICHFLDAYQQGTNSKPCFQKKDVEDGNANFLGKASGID
T1 sequence (Q02153 1-619): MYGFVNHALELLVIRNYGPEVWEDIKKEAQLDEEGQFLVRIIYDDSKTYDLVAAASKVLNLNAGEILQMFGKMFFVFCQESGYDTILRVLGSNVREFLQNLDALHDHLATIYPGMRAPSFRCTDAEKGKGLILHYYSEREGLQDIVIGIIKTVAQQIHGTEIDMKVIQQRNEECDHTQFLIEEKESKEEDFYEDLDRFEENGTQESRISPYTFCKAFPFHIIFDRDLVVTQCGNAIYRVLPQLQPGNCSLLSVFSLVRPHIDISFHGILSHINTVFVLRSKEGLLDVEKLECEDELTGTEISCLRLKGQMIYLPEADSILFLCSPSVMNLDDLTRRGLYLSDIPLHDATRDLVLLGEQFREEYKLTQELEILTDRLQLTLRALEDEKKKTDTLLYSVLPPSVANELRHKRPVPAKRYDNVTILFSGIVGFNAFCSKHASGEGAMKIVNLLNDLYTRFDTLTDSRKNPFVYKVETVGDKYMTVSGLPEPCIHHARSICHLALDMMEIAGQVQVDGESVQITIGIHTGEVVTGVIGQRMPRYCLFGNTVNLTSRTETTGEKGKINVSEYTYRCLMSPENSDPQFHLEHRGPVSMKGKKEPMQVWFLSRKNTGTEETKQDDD
Summary of the method: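 EC50 values derive from HTRF cGMP measurement after test compounds act for thirty minutes at room temperature, with or without 50% human serum. Before dosing, the sGC-transfected CHO cells spend one hour with the inhibitor ODQ (40 microM) in IBMX- and 0.1% BSA-containing buffer.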

[2] = Assessment of solubility: HT solubility in pION buffer, UV spectrophotometry; conditions: kinetic from dmso stock
[3] = pH 6.8, aqueous buffer, Solubility (pH 6.8), pH 6.8
[4] = pION system solution buffer, pH 4.5, pH 4.5, aqueous buffer, Solubility (pH 4.5), pH 4.5 buffer, 16-19 h incubation, 1.0% DMSO
[5] = pION system solution buffer, pH 7.4, pH 7.4, aqueous buffer, Solubility (pH 7.4), pH 7.4 buffer, 16-19 h incubation, 1.0% DMSO

Structure (SMILES)	EC50 [1]	solubility [2, 3]	solubility [2, 4]	solubility [2, 5]
Cc1ccc(OCc2ccc(C(=O)N3CCN(C)C(=O)C3)cc2C)c(-c2csc(N3C[C@H]4CC[C@@H](C3)[C@H]4C(=O)O)n2)c1 [Compound 308]	20 nM	66 µg/mL (≈ 112 µM)	0.88 µg/mL (≈ 1.49 µM)	
Cc1ccc(OCc2ccc(C(=O)N3CCC(CO)CC3)cc2C)c(-c2csc(N3C[C@H]4CC[C@@H](C3)[C@H]4C(=O)O)n2)c1 [Compound 309]	42 nM	63 µg/mL (≈ 107 µM)	< 0.1 µg/mL	
Cc1ccc(OCc2ccc(C(=O)N3CC[C@@H](N(C)C)C3)cc2C)c(-c2csc(N3C[C@H]4CC[C@@H](C3)[C@H]4C(=O)O)n2)c1 [Compound 310]	99 nM	61 µg/mL (≈ 104 µM)	59 µg/mL (≈ 100 µM)	
Cc1ccc(OCc2ccc(C(=O)N3CC[C@H](N(C)C)C3)cc2C)c(-c2csc(N3C[C@H]4CC[C@@H](C3)[C@H]4C(=O)O)n2)c1 [Compound 311]	29 nM	63 µg/mL (≈ 107 µM)	58 µg/mL (≈ 98.5 µM)	
Cc1ccc(OCc2ccc(C(=O)N3CCC[C@@H](O)C3)cc2C)c(-c2csc(N3C[C@H]4CC[C@@H](C3)[C@H]4C(=O)O)n2)c1 [Compound 312]	35 nM	13 µg/mL (≈ 22.6 µM)	0.26 µg/mL (≈ 0.452 µM)	
Cc1ccc(OCc2ccc(C(=O)N3CC[C@H](O)C3)cc2C)c(-c2csc(N3C[C@H]4CC[C@@H](C3)[C@H]4C(=O)O)n2)c1 [Compound 313]	120 nM	78 µg/mL (≈ 139 µM)	1.3 µg/mL (≈ 2.31 µM)	
Cc1ccc(OCc2ccc(C(=O)N3CCNC(=O)C3)cc2C)c(-c2csc(N3C[C@H]4CC[C@@H](C3)[C@H]4C(=O)O)n2)c1 [Compound 314]	63 nM	68 µg/mL (≈ 118 µM)	2.4 µg/mL (≈ 4.18 µM)	
Cc1ccc(OCc2ccc(C(=O)N(C)Cc3cnn(C)c3)cc2C)c(-c2csc(N3C[C@H]4CC[C@@H](C3)[C@H]4C(=O)O)n2)c1 [Compound 315]	57 nM	54 µg/mL (≈ 90 µM)	< 0.1 µg/mL	> 60 µg/mL
Cc1ccc(OCc2ccc(C(=O)N3CCCOCC3)cc2C)c(-c2csc(N3C[C@H]4CC[C@@H](C3)[C@H]4C(=O)O)n2)c1 [Compound 316]	15 nM	64 µg/mL (≈ 111 µM)	< 0.1 µg/mL	
Cc1ccc(OCc2ccc(C(=O)N3CCC(F)(F)CC3)cc2C)c(-c2csc(N3C[C@H]4CC[C@@H](C3)[C@H]4C(=O)O)n2)c1 [Compound 317]	20 nM	41 µg/mL (≈ 68.8 µM)	< 0.1 µg/mL	
Cc1ccc(OCc2ccc(C(=O)N(C)Cc3ccnn3C)cc2C)c(-c2csc(N3C[C@H]4CC[C@@H](C3)[C@H]4C(=O)O)n2)c1 [Compound 318]	66 nM	34 µg/mL (≈ 56.7 µM)	< 0.1 µg/mL	> 53 µg/mL
Cc1ccc(OCc2ccc(C(=O)N3CCC[C@H](O)C3)cc2C)c(-c2csc(N3C[C@H]4CC[C@@H](C3)[C@H]4C(=O)O)n2)c1 [Compound 319]	70 nM	12 µg/mL (≈ 20.8 µM)	0.23 µg/mL (≈ 0.399 µM)	
Cc1ccc(OCc2ccc(C(=O)N3CCC(F)(F)C3)cc2C)c(-c2csc(N3C[C@H]4CC[C@@H](C3)[C@H]4C(=O)O)n2)c1 [Compound 320]	15 nM	36 µg/mL (≈ 61.9 µM)	< 0.1 µg/mL	
COC1CCN(C(=O)c2ccc(COc3ccc(C)cc3-c3csc(N4C[C@H]5CC[C@@H](C4)[C@H]5C(=O)O)n3)c(C)c2)CC1 [Compound 321]	55 nM	41 µg/mL (≈ 69.5 µM)	0.13 µg/mL (≈ 0.22 µM)	
COC1CCCN(C(=O)c2ccc(COc3ccc(C)cc3-c3csc(N4C[C@H]5CC[C@@H](C4)[C@H]5C(=O)O)n3)c(C)c2)C1 (some centres unmarked) [Compound 322]	19 nM	42 µg/mL (≈ 71.2 µM)	0.15 µg/mL (≈ 0.254 µM)	
Cc1ccc(OCc2ccc(C(=O)N3CCC(C#N)CC3)cc2C)c(-c2csc(N3C[C@H]4CC[C@@H](C3)[C@H]4C(=O)O)n2)c1 [Compound 323]	51 nM	39 µg/mL (≈ 66.7 µM)	< 0.1 µg/mL	
